In brackets after ≈: the same amount, converted by molar mass. Where two headings read alike, the source gives them in different places.
Legend:
Assay type in all cases: cell-based
[1] = tested on: Alcaligenes faecalis 424/98; experiment: Bactericidal activity (MBC)
[2] = tested on: Achromobacter xylosoxidans AX 22; experiment: Bactericidal activity (MBC); details: AX22
[3] = tested on: Enterobacter cloacae VA-417/02 (VIM-4); experiment: Bactericidal activity (MBC)
[4] = tested on: Pseudomonas aeruginosa VR143/97; experiment: MIC against resistant clinical isolates; details: resistance profile PEN, ES-CEPH, CARB, MON, AG, FQ
Experimental: (§1) Bacterial strains were obtained from the ATCC or CCUG culture collections or present in the authors' collection of clinical isolates. Compounds were re-suspended in dimethyl sulfoxyde (DMSO) at a final concentration of 10 mg/ml and subsequently diluted in the culture medium. The minimum inhibitory concentrations (MICs) of the compounds of the invention were determined using the microdilution broth method using Mueller-Hinton broth as recommended by the Clinical Laboratory Standards Institute (CLSI [11]). Bacterial inoculum was 5×10^4 CFU/well. MICs were recorded after 18-24 hours incubation at 35-37° C.
(§2) The Antibacterial activity of compound 28 was also tested on a panel of Gram-negative and Gram-positive clinical isolates, showing various antimicrobial susceptibility profiles (Table 4). The class of drugs for which the isolate was resistant to is indicated in column 2 (PEN, penicillins; ES-CEPH, expanded-spectrum cephalosporins; CARB, carbapenems; AZT; aztreonam; AG, aminoglycosides; FQ, fluoroquinolones; SXT, trimethoprim/sulfamethoxazole; FOS, fosfomycin; GLY, glycopeptides; LNZ, linezolid; COL-R, colistin resistant; COL-S colistin sensitive; PDR, poly-drug resistant).

[5] = tested on: Klebsiella pneumoniae 207-2; experiment: MIC against resistant clinical isolates; details: 2072, COL-R
Experimental: as §1, §2

[6] = tested on: Staphylococcus haemolyticus SI-6/2011; experiment: MIC against resistant clinical isolates; details: SI6/2011, resistance profile AG
Experimental: as §1, §2

[7] = tested on: Staphylococcus warneri SI-5/2011; experiment: MIC against resistant clinical isolates; details: SI5/2011, resistance profile PEN, AG
Experimental: as §1, §2

[8] = tested on: Staphylococcus aureus ATCC 43300 (MRSA); experiment: MIC against resistant clinical isolates; details: resistance profile PEN
Experimental: as §1, §2

[9] = tested on: Klebsiella pneumoniae BO4; experiment: MIC against resistant clinical isolates; details: COL-R
Experimental: as §1, §2

[10] = tested on: Klebsiella pneumoniae BO1; experiment: MIC against resistant clinical isolates; details: COL-S
Experimental: as §1, §2

[11] = tested on: Klebsiella pneumoniae B2; experiment: MIC against resistant clinical isolates; details: COL-R
Experimental: as §1, §2

[12] = tested on: Klebsiella pneumoniae 167R; experiment: MIC against resistant clinical isolates; details: resistance profile PDR
Experimental: as §1, §2

[13] = tested on: Staphylococcus aureus ATCC 700699 (VanA); experiment: MIC against resistant clinical isolates; details: ATCC700699, resistance profile GLY
Experimental: as §1, §2

[14] = tested on: Klebsiella pneumoniae KP0787; experiment: MIC against resistant clinical isolates; details: resistance profile PDR
Experimental: as §1, §2

[15] = tested on: Pseudomonas aeruginosa 14X-34; experiment: MIC against resistant clinical isolates; details: 14X34, resistance profile PDR
Experimental: as §1, §2

[16] = tested on: Klebsiella pneumoniae B1; experiment: MIC against resistant clinical isolates; details: COL-S
Experimental: as §1, §2

[17] = tested on: Klebsiella pneumoniae 7023; experiment: MIC against resistant clinical isolates; details: resistance profile PEN, ES-CEPH, CARB, AG, FQ, SXT
Experimental: as §1, §2

[18] = tested on: Klebsiella pneumoniae 207-1; experiment: MIC against resistant clinical isolates; details: 2071, COL-S
Experimental: as §1, §2

[19] = tested on: Pseudomonas aeruginosa 101/1477; experiment: MIC against resistant clinical isolates; details: resistance profile PEN, ES-CEPH, CARB, AG
Experimental: as §1, §2

[20] = tested on: Klebsiella pneumoniae 081R; experiment: Antimicrobial susceptibility testing, MIC by microdilution broth method; details: Klebsiella pneumoniae, 081R
Experimental: as §1, §2

[21] = tested on: Enterobacter cloacae VA-417/02 (VIM-4); experiment: as above; details: Enterobacter cloacae, read-out: MIC
Experimental: as §1, §2

[22] = tested on: Acinetobacter baumannii AC-54/97 (IMP-2); experiment: as above; details: Acinetobacter baumannii, read-out: MIC
Experimental: as §1, §2

[23] = tested on: Enterococcus faecalis ATCC 19433; experiment: as above; details: ATCC19433, Mueller-Hinton broth, 18-24 hours at 35-37° C., read-out: MIC
Experimental: as §1

[24] = tested on: Pseudomonas aeruginosa ATCC 27853; experiment: as above; details: ATCC27853, Mueller-Hinton broth, 18-24 hours at 35-37° C., read-out: MIC
Experimental: as §1

[25] = tested on: Escherichia coli CCUG^T; experiment: as above; details: Mueller-Hinton broth, 18-24 hours at 35-37° C., read-out: MIC
Experimental: as §1

[26] = tested on: Achromobacter xylosoxidans AX 22; experiment: as above; details: AX22, Mueller-Hinton broth, 18-24 hours at 35-37° C., read-out: MIC
Experimental: as §1

[27] = tested on: Burkholderia cepacia RII; experiment: as above; details: Mueller-Hinton broth, 18-24 hours at 35-37° C., read-out: MIC
Experimental: as §1

[28] = tested on: Staphylococcus aureus ATCC 25923; experiment: as above; details: ATCC25923, Mueller-Hinton broth, 18-24 hours at 35-37° C., read-out: MIC
Experimental: as §1

[29] = tested on: Chryseobacterium meningosepticum CCUG 4310; experiment: as above; details: Elizabethkingia meningoseptica, CCUG4310, Mueller-Hinton broth, 18-24 hours at 35-37° C., read-out: MIC
Experimental: as §1

[30] = tested on: Stenotrophomonas maltophilia 634/08; experiment: as above; details: Mueller-Hinton broth, 18-24 hours at 35-37° C., read-out: MIC
Experimental: as §1

[31] = tested on: Klebsiella pneumoniae ATCC 13833; experiment: as above; details: ATCC13833, Mueller-Hinton broth, 18-24 hours at 35-37° C., read-out: MIC
Experimental: as §1

[32] = tested on: Alcaligenes faecalis 424/98; experiment: as above; details: Mueller-Hinton broth, 18-24 hours at 35-37° C., read-out: MIC
Experimental: as §1

SMILES: N=C(N)NCCCCCCCCN(CCCCCCCCNC(=N)NCC1CC1)C(=O)N(CCCCCCCCNC(=N)N)CCCCCCCCNC(=N)NCC1CC1 [Compound 28, 1,3-bis(8-(3-(cyclopropylmethyl)guanidino)octyl)-1,3-bis(8-guanidinooctyl)urea]
- MBC [1]: 8 µg/mL (≈ 9.46 µM)
- MBC [2]: 8 µg/mL (≈ 9.46 µM)
- MBC [3]: 1 µg/mL (≈ 1.18 µM)
- MIC [4]: 8 µg/mL (≈ 9.46 µM)
- MIC [5]: 8 µg/mL (≈ 9.46 µM)
- MIC [6]: 2 µg/mL (≈ 2.37 µM)
- MIC [7]: 2 µg/mL (≈ 2.37 µM)
- MIC [8]: 4 µg/mL (≈ 4.73 µM)
- MIC [9]: 8 µg/mL (≈ 9.46 µM)
- MIC [10]: 4 µg/mL (≈ 4.73 µM)
- MIC [11]: 4 µg/mL (≈ 4.73 µM)
- MIC [12]: 4 µg/mL (≈ 4.73 µM)
- MIC [13]: 4 µg/mL (≈ 4.73 µM)
- MIC [14]: 1 µg/mL (≈ 1.18 µM)
- MIC [15]: 8 µg/mL (≈ 9.46 µM)
- MIC [16]: 4 µg/mL (≈ 4.73 µM)
- MIC [17]: 2 µg/mL (≈ 2.37 µM)
- MIC [18]: 4 µg/mL (≈ 4.73 µM)
- MIC [19]: 8 µg/mL (≈ 9.46 µM)
- MIC ([20]; Table 4, resistance profile PDR, read-out: MIC): 4 µg/mL (≈ 4.73 µM)
- MIC ([20]; Tables 2 and 3, read-out: MIC): 2 µg/mL (≈ 2.37 µM)
- MIC ([21]; Enterobacter cloacae VA-417/02 (VIM-4), Tables 2 and 3): 1 µg/mL (≈ 1.18 µM)
- MIC ([21]; Table 4, Enterobacter cloacae VA-417/02, resistance profile PEN, CEPH, CARB, AG, FQ): 2 µg/mL (≈ 2.37 µM)
- MIC ([22]; Acinetobacter baumannii AC-54/97 (IMP-2), Tables 2 and 3): 2 µg/mL (≈ 2.37 µM)
- MIC ([22]; Table 4, Acinetobacter baumannii AC-54/97, resistance profile PEN, ES-CEPH, CARB, AZT, AG, FQ, FOS, SXT): 4 µg/mL (≈ 4.73 µM)
- MIC [23]: < 0.125 µg/mL
- MIC [24]: 4 µg/mL (≈ 4.73 µM)
- MIC [25]: 1 µg/mL (≈ 1.18 µM)
- MIC [26]: 8 µg/mL (≈ 9.46 µM)
- MIC [27]: 8 µg/mL (≈ 9.46 µM)
- MIC [28]: 2 µg/mL (≈ 2.37 µM)
- MIC [29]: 64 µg/mL (≈ 75.7 µM)
- MIC [30]: 16 µg/mL (≈ 18.9 µM)
- MIC [31]: 1 µg/mL (≈ 1.18 µM)
- MIC [32]: 8 µg/mL (≈ 9.46 µM)
